# Test results from the supplement of paper PMC11061612.
# Key:
# Assay in all cases: combination Emax (second highest fraction inhibited in the dose matrix, 72 h); higher = more inhibition; extreme values may be limits of the assay
# [1] = tested on: 647-V (Bladder Carcinoma)
# How it was run: (§1)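 Cell lines in DMEM/F12 or RPMI with 10% FBS were plated in 1536-well plates, held 24 hours at 37°C, 5% CO2, then given two-drug dose matrices for 72 hours (DMSO typically 0.2%). Viability was read by CellTiter-Glo 2.0 luminescence and scaled as inhibition from 0 (vehicle wells) to 1 (blank wells). Combination Emax is the second-highest inhibition in the matrix; Bliss excess is observed combination effect minus expected EA + EB − EA·EB, EA and EB being single-agent effects.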
# [2] = tested on: A172 (Glioblastoma)
# How it was run: as §1
# [3] = tested on: BICR78 (Oral Cavity Carcinoma)
# How it was run: as §1
# [4] = tested on: ETK-1 (Biliary Tract Carcinoma)
# How it was run: as §1
# [5] = tested on: HCC38 (Breast Carcinoma)
# How it was run: as §1
# [6] = tested on: HCT-116 (Colorectal Carcinoma)
# How it was run: as §1
# [7] = tested on: MCF7 (Breast Carcinoma)
# How it was run: as §1
# [8] = tested on: MEG-01 (Chronic Myelogenous Leukemia)
# How it was run: as §1
# [9] = tested on: NOMO-1 (Acute Myeloid Leukemia)
# How it was run: as §1
# [10] = tested on: P31-FUJ (Acute Myeloid Leukemia)
# How it was run: as §1
# [11] = tested on: RCC10RGB (Kidney Carcinoma)
# How it was run: as §1
# [12] = tested on: SK-LMS-1 (Other Solid Carcinomas)
# How it was run: as §1
# [13] = tested on: SKN-3 (Head and Neck Carcinoma)
# How it was run: as §1
# [14] = tested on: SLVL (B-Cell Non-Hodgkin's Lymphoma)
# How it was run: as §1
# [15] = tested on: SNU-61 (Colorectal Carcinoma)
# How it was run: as §1
# [16] = tested on: SW48 (Colorectal Carcinoma)
# How it was run: as §1
# [17] = tested on: Saos-2 (Osteosarcoma)
# How it was run: as §1
# [18] = tested on: TYK-nu (Ovarian Carcinoma)
# How it was run: as §1
# [19] = tested on: U-118-MG (Low Grade Glioma)
# How it was run: as §1
# [20] = tested on: WSU-DLCL2 (B-Cell Non-Hodgkin's Lymphoma)
# How it was run: as §1
SMILES,combination Emax [1],combination Emax [2],combination Emax [3],combination Emax [4],combination Emax [5],combination Emax [6],combination Emax [7],combination Emax [8],combination Emax [9],combination Emax [10],combination Emax [11],combination Emax [12],combination Emax [13],combination Emax [14],combination Emax [15],combination Emax [16],combination Emax [17],combination Emax [18],combination Emax [19],combination Emax [20]
"CCN(CCO)CCCOc1ccc2c(Nc3cc(CC(=O)Nc4cccc(F)c4)[nH]n3)ncnc2c1 [AZD2811] + C[C@@H]1COCCN1C2=NC(=NC(=C2)C3(CC3)[S@](=N)(=O)C)C4=C5C=CNC5=NC=C4 [AZD6738] (first compound max 1 µM, 7x7, partner max 10 µM)",0.524,0.655,0.637,0.562,0.568,0.562,0.58,0.912,0.922,0.942,0.384,0.551,0.222,0.784,0.297,0.975,0.588,0.717,0.52,0.822
"CCN(CCO)CCCOc1ccc2c(Nc3cc(CC(=O)Nc4cccc(F)c4)[nH]n3)ncnc2c1 [AZD2811] + O=C(c1cc(Cc2n[nH]c(=O)c3ccccc23)ccc1F)N1CCN(C(=O)C2CC2)CC1 [Olaparib] (first compound max 1 µM, 7x7, partner max 10 µM)",0.275,0.534,0.285,0.216,0.287,0.452,0.224,0.564,0.396,0.83,0.211,0.367,0.0796,0.723,0.171,0.961,0.456,0.359,0.377,0.273
"CN(CCO)CC[C@H](CSc1ccccc1)Nc1ccc(S(=O)(=O)NC(=O)c2ccc(N3CCC([C@@H](O)c4ccccc4-c4ccc(Cl)cc4)CC3)cc2)cc1S(=O)(=O)C(F)(F)F [AZD4320] + C1CN(CCC1(C(=O)N[C@@H](CCO)C2=CC=C(C=C2)Cl)N)C3=NC=NC4=C3C=CN4 [Capivasertib] (first compound max 1 µM, 7x7, partner max 3 µM)",0.147,0.158,0.244,0.175,0.848,0.146,0.279,0.901,0.51,0.869,0.237,0.305,0.062,0.622,0.053,0.732,0.399,0.244,0.497,1
"CN(CCO)CC[C@H](CSc1ccccc1)Nc1ccc(S(=O)(=O)NC(=O)c2ccc(N3CCC([C@@H](O)c4ccccc4-c4ccc(Cl)cc4)CC3)cc2)cc1S(=O)(=O)C(F)(F)F [AZD4320] + C=CCn1c(=O)c2cnc(Nc3ccc(N4CCN(C)CC4)cc3)nc2n1-c1cccc(C(C)(C)O)n1 [AZD1775] (first compound max 1 µM, partner max 1 µM)",0.949,0.491,0.304,0.618,0.903,0.572,0.51,0.994,0.97,0.983,0.552,0.778,0.368,0.966,0.349,0.825,0.707,0.65,0.376,1
"CN(CCO)CC[C@H](CSc1ccccc1)Nc1ccc(S(=O)(=O)NC(=O)c2ccc(N3CCC([C@@H](O)c4ccccc4-c4ccc(Cl)cc4)CC3)cc2)cc1S(=O)(=O)C(F)(F)F [AZD4320] + CCN(CCO)CCCOc1ccc2c(Nc3cc(CC(=O)Nc4cccc(F)c4)[nH]n3)ncnc2c1 [AZD2811] (first compound max 1 µM, 7x7, partner max 1 µM)",0.708,0.457,0.313,0.26,0.802,0.748,0.248,0.93,0.76,0.954,0.133,0.845,0.0584,0.94,0.126,1,0.77,0.27,0.487,0.907
"CN(CCO)CC[C@H](CSc1ccccc1)Nc1ccc(S(=O)(=O)NC(=O)c2ccc(N3CCC([C@@H](O)c4ccccc4-c4ccc(Cl)cc4)CC3)cc2)cc1S(=O)(=O)C(F)(F)F [AZD4320] + CN(C)CCCOc1ccc(-c2ccc3ncc4c(c3c2)n(C2CCOCC2)c(=O)n4C)cn1 [AZD0156] (first compound max 1 µM, 7x7, partner max 1 µM)",0.172,0.176,0.134,0.112,0.812,0.167,0.234,0.898,0.377,0.814,0.243,0.371,0.102,0.461,0.11,0.517,0.193,0.165,0.388,0.581
